Assay results taken from US9204653B2, “5-fluoro pyrimidine derivatives” (DOW AGROSCIENCES LLC, priority 2008, dated 2015).
Read-outs that look alike come from different tables or passages of the source.

Test system: Mycosphaerella graminicola; Anamorph: Septoria tritici; Bayer Code SEPTTR
Assay: Leaf blotch of wheat, foliar fungicide treatment, one day protectant (1DP) or three day curative (3DC)
Assay type: in vivo, Septoria tritici on wheat plants (variety Yuma)
Conditions: Zymoseptoria tritici, rating of percent disease control
[1] = 24 h, one day protectant (1DP), read-out: SETTTR 1DP 25 ppm
[2] = 24 h, one day protectant (1DP), read-out: SEPTTR 1DP 100 ppm
[3] = 72 h, three day curative (3DC), read-out: SEPTTR 3DC 25 ppm
[4] = 72 h, three day curative (3DC), read-out: SEPTTR 3DC 100 ppm

Row | Compound | pest or weed control at 25 ppm [1] [%] | pest or weed control at 100 ppm [2] [%] | pest or weed control at 25 ppm [3] [%] | pest or weed control at 100 ppm [4] [%]
1 | Nc1nc(ON=C(c2ccccc2)c2ccccc2)ncc1F [Compound 312] | 76 to 100 | 76 to 100 | 76 to 100 | 76 to 100
2 | CCOC(=O)Nc1nc(OCc2cccc(C#N)c2)ncc1F [Compound 314] | 76 to 100 | 76 to 100 | 76 to 100 | 76 to 100
3 | COCCCOc1ncc(F)c(N)n1 [Compound 315] | 51 to 75 | 76 to 100 | 76 to 100 | 76 to 100
4 | COc1ccccc1COc1ncc(F)c(/N=C2\CCCCN2C)n1 [Compound 317] | 51 to 75 | 76 to 100 | 26 to 50 | 76 to 100
5 | Cn1nc(-c2ccccc2)nc1-c1ccccc1COc1ncc(F)c(N)n1 [Compound 320] | 0 to 25 | 0 to 25 | 26 to 50 | 26 to 50
6 | COCCCOc1ncc(F)c(NC(C)=O)n1 [Compound 321] | 76 to 100 | 76 to 100 | 76 to 100 | 76 to 100
7 | Oc1ncc(F)c(N/N=C/c2ccccc2Cl)n1 [Compound 322] | 0 to 25 | 0 to 25 | 0 to 25 | 0 to 25
8 | Cc1ccc(COc2ncc(F)c(N)n2)c(C)c1 [Compound 323] | 76 to 100 | 76 to 100 | 76 to 100 | 76 to 100
9 | O=[N+]([O-])c1ccccc1SNc1nc(OCc2ccc(F)c(F)c2)ncc1F [Compound 324] | 76 to 100 | 76 to 100 | 0 to 25 | 26 to 50
10 | Cc1ccc(COc2ncc(F)c(NO)n2)cc1 [Compound 325] | 76 to 100 | 76 to 100 | 76 to 100 | 76 to 100
11 | CN1CCCC/C1=N\c1nc(OCc2cccc(F)c2)ncc1F [Compound 326] | 76 to 100 | 76 to 100 | 51 to 75 | 76 to 100
12 | COc1cccc(COc2ncc(F)c(/N=C3\CCCCN3C)n2)c1 [Compound 327] | 51 to 75 | 76 to 100 | 51 to 75 | 76 to 100
13 | CCOc1ccccc1COc1ncc(F)c(N)n1 [Compound 328] | 76 to 100 | 76 to 100 | 76 to 100 | 76 to 100
14 | COc1ccccc1COc1ncc(F)c(NC(=O)Nc2ccccc2F)n1 [Compound 329] | 0 to 25 | 0 to 25 | 0 to 25 | 0 to 25
15 | Fc1cnc(OCc2ccccc2)nc1NCOCc1ccccc1 [Compound 330] | 0 to 25 | 76 to 100 | 0 to 25 | 26 to 50
16 | CCOCNc1nc(OCc2ccccc2OC)ncc1F [Compound 331] | 76 to 100 | 76 to 100 | 76 to 100 | 76 to 100
17 | O=C(Nc1ccccc1)Nc1nc(OCc2cccc(F)c2)ncc1F [Compound 332] | 76 to 100 | 76 to 100 | 51 to 75 | 26 to 50
18 | COc1cccc(COc2ncc(F)c(-n3ccnc3)n2)c1 [Compound 334] | 76 to 100 | 76 to 100 | 76 to 100 | 76 to 100
19 | CC(Oc1ncc(F)c(/N=C/N2CCOCC2)n1)c1ccc(F)cc1 (stereo not shown) [Compound 338] | 76 to 100 | 76 to 100 | 76 to 100 | 76 to 100
20 | CNc1nc(OCc2ccc(OC)cc2)ncc1F [Compound 339] | 0 to 25 | 26 to 50 | 26 to 50 | 51 to 75
21 | CCN(N)c1nc(OCc2cccc(OC)c2)ncc1F [Compound 340] | 0 to 25 | 76 to 100 | 26 to 50 | 76 to 100
22 | CCOC(=O)CCC(=O)NNc1nc(OCc2ccccc2)ncc1F [Compound 344] | 26 to 50 | 26 to 50 | 0 to 25 | 26 to 50
23 | CC[Si](CC)(CC)Nc1nc(OCc2cccc(F)c2)ncc1F [Compound 346] | 76 to 100 | 76 to 100 | 76 to 100 | 76 to 100

Row | Compound | pest or weed control at 25 ppm [1] [%] | pest or weed control at 100 ppm [2] [%] | pest or weed control at 25 ppm [3] [%] | pest or weed control at 100 ppm [4] [%]
24 | Nc1nc(OS(=O)(=O)c2cccs2)ncc1F [Compound 348] | 76 to 100 | 76 to 100 | 76 to 100 | 76 to 100
25 | COc1cc(Cl)c(COc2ncc(F)c(N)n2)cc1OC [Compound 350] | 76 to 100 | 76 to 100 | 76 to 100 | 76 to 100
26 | COc1ccc(OC)c(COc2ncc(F)c(N)n2)c1 [Compound 351] | 76 to 100 | 76 to 100 | 76 to 100 | 76 to 100
27 | COc1ccccc1COc1ncc(F)c(NCOCc2ccccc2)n1 [Compound 354] | 51 to 75 | 76 to 100 | 26 to 50 | 76 to 100
28 | Nc1nc(OC(c2ccc(F)cc2)c2ccc(F)cc2)ncc1F [Compound 355] | 76 to 100 | 76 to 100 | 76 to 100 | 76 to 100
29 | Fc1cnc(OCc2ccccc2)nc1N/N=C/c1ccco1 [Compound 357] | 26 to 50 | 26 to 50 | 0 to 25 | 51 to 75
30 | CC(C)=NNc1nc(OCc2ccc(F)cc2)ncc1F [Compound 358] | 0 to 25 | 51 to 75 | 26 to 50 | 76 to 100
31 | CN(C)/C=N/c1nc(OS(=O)(=O)c2ccc(Cl)cc2)ncc1F [Compound 359] | 76 to 100 | 76 to 100 | 76 to 100 | 26 to 50
32 | O=C(Nc1nc(OCc2cccc(F)c2)ncc1F)OCc1cccc(F)c1 [Compound 360] | 76 to 100 | 76 to 100 | 76 to 100 | 76 to 100
33 | CN(C)/C=N/c1nc(OC(=O)Oc2ccc(Cl)cc2)ncc1F [Compound 361] | 51 to 75 | 76 to 100 | 76 to 100 | 76 to 100
34 | COCNc1nc(OCc2ccc(F)cc2)ncc1F [Compound 362] | 51 to 75 | 76 to 100 | 51 to 75 | 76 to 100
35 | O=C(Nc1nc(OCc2ccc(F)cc2)ncc1F)c1ccccc1 [Compound 364] | 76 to 100 | 76 to 100 | 76 to 100 | 76 to 100
36 | Cc1cc(COc2ncc(F)c(N)n2)ccc1F [Compound 365] | 76 to 100 | 76 to 100 | 76 to 100 | 76 to 100
37 | Cn1ccc(COc2ncc(F)c(NSc3ccccc3[N+](=O)[O-])n2)n1 [Compound 366] | 76 to 100 | 76 to 100 | 51 to 75 | 76 to 100
38 | COc1cccc(COc2ncc(F)c(N(N)c3ccccc3)n2)c1 [Compound 367] | 0 to 25 | 0 to 25 | 0 to 25 | 0 to 25
39 | Nc1nc(OCc2cccc(OC(F)F)c2)ncc1F [Compound 368] | 76 to 100 | 76 to 100 | 76 to 100 | 76 to 100
40 | Fc1cnc(OCc2cccs2)nc1/N=C/N1CCOCC1 [Compound 369] | 76 to 100 | 76 to 100 | 76 to 100 | 76 to 100
41 | O=C(NCc1ccccc1F)Nc1nc(OCc2ccccc2)ncc1F [Compound 371] | 0 to 25 | 0 to 25 | 0 to 25 | 0 to 25
42 | CN(CCOc1ncc(F)c(N)n1)c1ccccc1 [Compound 372] | 26 to 50 | 76 to 100 |  | 
43 | CCOCNc1nc(OCc2ccn(C)n2)ncc1F [Compound 374] | 51 to 75 | 76 to 100 | 76 to 100 | 76 to 100
44 | CCOCCOc1cccc(COc2ncc(F)c(NC)n2)c1 [Compound 375] | 0 to 25 | 0 to 25 | 26 to 50 | 76 to 100
45 | O=C(Nc1cccs1)Nc1nc(OCc2ccc(F)cc2)ncc1F [Compound 376] | 0 to 25 | 0 to 25 | 0 to 25 | 26 to 50
